Test results as given in patent US6426317B1, “Stable, high available halogen 1,3,5-triazine-2,4,6-trione compositions having rapid dissolution rates” (Great Lakes Chemical Corporation, priority 1999, dated 2002).

Key:
[1] = NFPA scale from 1 to 4, NFPA 430, 1995 edition; cited from earlier work
[2] = in water at 20° C.; cited from earlier work
[3] = Off-gassing of granular formula compositions (Example 3); format: physicochemical; details: Example 3, granules
Description: The formula compositions produced in this example were tested for their stability and in some cases for their solubility. The components used included a dissolution aid: disodium cyanurate, and a disintegration agent: microcrystalline cellulose, Lattice® NT (FMC).
Again, blended powder samples were prepared for each formula composition. A 20-gram sample of each test formula composition was placed in a 2.0 inch diameter dye-punch set and compressed under 22 tons of force for 60 minutes using a Carver press. The compressed wafer was reduced to granules using a spatula and a mortar and pestle set. Properly sized granules were collected using a standard sieve shaker.
Approximately one gram of each granular formula composition sample was placed in an eight-ounce sample container. […] The containers were vapor sealed and carefully placed in an approximately 50° C. oven for 24 hours. After the sample set was removed from the oven and cooled, a one-ml aliquot from each sample was placed in 50 ml of deionized water and titrated with 0.100 N sodium thiosulfate. The volume of thiosulfate reagent used to titrate the available halogen in the KI solution was recorded.

[4] = for effect of additive on off-gassing of trichloroisocyanuric acid: Example 1, 25.5% additive
[5] = Off-gassing of roll-compacted granules contaminated with water (Examples 4-6); format: physicochemical; details: Table 9; Example 6
[6] = Solubility (15-minute dissolution) of granules in balanced swimming pool water, thiosulfate titration; details: Table 9; Example 6
[7] = Total chlorine in synthetic pool water exposed to environmental UV light (Example 7); format: physicochemical; parameters: unit not given here

O=c1[n-]c(=O)n(Cl)c(=O)n1Cl.[K+] [Potassium dichloroisocyanurate anhydrous, potassium dichloroisocyanurate]
Oxidizer Rating [1]: 3
Solubility [2]: 5.0^4 g/100g (%)

O=c1nc([O-])n(Cl)c(=O)n1Cl.[Na+] [Sodium dichloroisocyanurate anhydrous, sodium dichloroisocyanurate]
Oxidizer Rating [1]: 3
Solubility [2]: 12.5^4 g/100g (%)

O=c1nc([O-])nc([O-])[nH]1.[Na+].[Na+] [disodium cyanurate, disodium salt of 1,3,5-triazine-2,4,6-trione]
effect of additive on off-gassing [3]: do not significantly affect the off-gassing profile

O=C([O-])O.[Na+] [sodium bicarbonate]
effect of additive on off-gassing of trichloroisocyanuric acid [4]: increase gassing significantly

O=c1n(Cl)c(=O)n(Cl)c(=O)n1Cl [Trichloroisocyanuric acid, 1,3,5-trichloro-1,3,5-triazine-2,4,6-trione]
Off-Gassing Titrant Volume [5]: 2.00 mL
Titrant Volume (off-gassing) ([4]; Table 1, compressed powder wafer, 5 ml 15% KI, approximately 50° C., 24 hours, 0.100 N sodium thiosulfate): 2.65 mL
Oxidizer Rating [1]: 1
Solubility [2]: 1.2^4 g/100g (%)
Solubility Titrant Volume [6]: 1.90 mL

[Ca+2].[O-]Cl.[O-]Cl [Calcium hypochlorite, calcium hypochlorite]
Total Cl ([7]; sampling time 0:00 (Hr:Min), 10 ppm available halogen added, outdoor UV light): 0.02
Total Cl ([7]; sampling time 0:05): 6.8
Total Cl ([7]; sampling time 0:10): 6.8
Total Cl ([7]; sampling time 0:15): 7.2
Total Cl ([7]; sampling time 0:20): 6.8
Total Cl ([7]; sampling time 0:25): 6.0
Total Cl ([7]; sampling time 0:30): 5.1
Total Cl ([7]; sampling time 0:40): 5.0
Total Cl ([7]; sampling time 0:50): 3.3
Total Cl ([7]; sampling time 1:00): 3.5
Total Cl ([7]; sampling time 1:15): 2.2
Total Cl ([7]; sampling time 1:30): 2.6
Oxidizer Rating [1]: 3
Solubility [2]: ≅22^3 g/100g (%)

OB(O)O [boric acid]
effect of additive on off-gassing of trichloroisocyanuric acid [4]: do not significantly affect the off-gassing profile of trichloroisocyanuric acid

[Li+].[O-]Cl [Lithium hypochlorite]
Oxidizer Rating [1]: 2
Solubility [2]: ≅43^3 g/100g (%)
